Measurements reported in patent publication US5334600A, “Isoquinolyl substituted hydroxylamine derivatives” (Ciba-Geigy Corporation, priority 1993, dated 1994).

Key:
5-lipoxygenase [1] = target: T1, 5-lipoxygenase (Cavia porcellus, UniProt A0A286X958); test: Inhibition of 5-HETE and LTB4 synthesis in A-23187-stimulated guinea pig polymorphonuclear leukocytes; type: cell-based; conditions: read-out: IC50, inhibition of the formation of 5-HETE and leukotriene B4 (LTB4)
T1 construct: A-23187-stimulated guinea pig polymorphonuclear leukocytes; endogenous in cells; host or cells: guinea pig polymorphonuclear leukocytes
T1 sequence (A0A286X958 1-674): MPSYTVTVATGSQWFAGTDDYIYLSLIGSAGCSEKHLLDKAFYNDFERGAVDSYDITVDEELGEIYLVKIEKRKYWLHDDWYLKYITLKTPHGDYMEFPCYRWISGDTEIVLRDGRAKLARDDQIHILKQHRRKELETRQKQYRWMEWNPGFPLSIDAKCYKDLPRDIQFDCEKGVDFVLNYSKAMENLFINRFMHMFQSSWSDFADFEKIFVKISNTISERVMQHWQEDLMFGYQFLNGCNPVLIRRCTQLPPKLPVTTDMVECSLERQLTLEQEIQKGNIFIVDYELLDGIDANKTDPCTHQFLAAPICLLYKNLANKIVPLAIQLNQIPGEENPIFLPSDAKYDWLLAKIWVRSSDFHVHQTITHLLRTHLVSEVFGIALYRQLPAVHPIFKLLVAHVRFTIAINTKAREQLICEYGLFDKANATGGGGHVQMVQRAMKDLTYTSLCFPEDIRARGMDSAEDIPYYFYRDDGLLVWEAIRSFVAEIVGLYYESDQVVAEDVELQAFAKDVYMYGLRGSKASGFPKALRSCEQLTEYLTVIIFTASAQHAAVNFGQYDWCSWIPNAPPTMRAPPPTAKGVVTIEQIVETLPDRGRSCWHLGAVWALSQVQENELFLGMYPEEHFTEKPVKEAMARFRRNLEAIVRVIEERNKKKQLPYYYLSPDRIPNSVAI
Method: 5-Lipoxygenase inhibition is determined e.g. by measuring the percent inhibition of the synthesis of 5-HETE [(5S)-5-hydroxy-6,8,11,14-eicosa-tetraenoic acid] and leukotriene B4 (LTB4, 5,12-dihydroxy-6,8, 10, 14-eicosatetraenoic acid) in A-23187-stimulated guinea pig polymorphonuclear leukocytes, essentially according to radiometric thin-layer chromatographic assays described by Walker and Dawson (J. Pharm. Pharmacol. 31: 778, 1979) and Jakschik and Lee (Nature 287: 51, 1980) to measure the formation of 5-HETE and LTB4 -like products from ^14 C-arachidonic acid. IC50 values are determined graphically as the concentration of test compound at which the synthesis of 5-HETE and LTB4 -like products is reduced to 50 % of their respective control values.

5-lipoxygenase [2] = test: Ex vivo inhibition of A-23187-stimulated LTB4 formation in whole blood after oral administration; conditions: dose of about 1.0 mg/kg p.o. to the dog
Method: Furthermore, the inhibition of 5-lipoxygenase is determined after oral or i.v. administration to rats or dogs by measuring ex vivo in whole blood the decrease of A-23187-stimulated LTB4 formation as compared to non-treated control animals.

## NC(=O)N(O)CCOc1ccc2c(c1)CCN(CCCc1ccccc1)C2=O [1(f), 2-(3-phenylpropyl)-6-[2-(N-aminocarbonyl-N-hydroxyamino)ethoxy]-1-oxo-1,2,3,4-tetrahydroisoquinoline]
5-lipoxygenase [1]
  IC50: ~0.5 µM
5-lipoxygenase [2]
  inhibition of LTB4 formation as determined ex vivo: significant inhibition
